Series [1] in a line: Stability of analytes in stock solution. The class given is physicochemical. To be noted: stock solutions stored at room temperature for 4 h, n = 3. How it is done:
The primary stock solutions of E, EG, C, CG, P, PG, and IS were prepared in dimethyl sulfoxide at a concentration of 1 mg/mL and stored at −80 °C. The mixture stock solutions to obtain the standard solutions were serially diluted in methanol. The IS stock solution of 5 ng/mL was prepared in methanol. The calibration standards were prepared by spiking 10 μL of above standard solutions into 90 μL of blank rat plasma to yield concentration ranges of 1–300 ng/mL for E, 20–300 ng/mL for P and C, 1–150 ng/mL for EG, 10–150 ng/mL for CG and PG. Twenty microliters of aliquots were prepared and stored at −80 °C until analysis.
(§1) The stability of the analytes in rat plasma was evaluated by analyzing triplicates of three QC levels at room temperature for 4 h (short-term stability), −80 °C for one month (long-term stability), three freeze-thaw cycles from −80 °C to room temperature (freeze and thaw stability), and 4 °C for 24 h (processed sample stability). The stability of analytes in stock solution was also evaluated. The peak areas obtained from freshly prepared stock solutions were compared with stock solutions stored for 4 h at room temperature.

Details of series [2]: method as in doi:10.1039/C5RA27273D. To be noted: hyperlipidemic hamsters after administration of rhubarb; cited from earlier work.
Series [3] in a line: Pharmacokinetic study after oral administration of R. acetosa extract to rats. To be noted: oral R. acetosa extract 2 g/kg. The class given is in vivo, Sprague‒Dawley rats. The procedure: The analysis was performed on an Agilent 1260 series (Agilent Technologies, Waldbronn, Germany) HPLC system. Chromatographic separation of the samples was carried out on a Kinetex Biphenyl column (100 × 3.0 mm, 2.6 μm, 110 Å, Phenomenex, Torrance, CA, USA). The mobile phase consisted of 2 mM ammonium formate (pH 6) in water (A) and 2 mM ammonium formate (pH 6) in methanol (B). The gradient program was used at a flow rate of 0.3 mL/min while maintaining the column temperature at 40 °C. The mobile phase initial composition of 25% B was maintained for 2 min. It was then increased linearly from 25% to 95% B for 0.5 min and held for 7 min. The gradient was then changed back to the initial condition for 0.5 min and kept at the initial condition for 3 min. The total analysis time was 13 min for each sample. The injection volume was 15 μL.
The mass spectrometric detection was performed on an Agilent 6460 triple-quadruple mass spectrometer (Agilent Technologies, Singapore) with an electrospray ionization source. It was operated in the negative ion detection mode because of its higher sensitivity than that in the positive ionization mode on multiple reaction monitoring (MRM). The data were acquired and processed using Mass Hunter Workstation B.06.00 software (Agilent Technologies, Singapore). The source parameters were also optimized as follows: a drying gas flow and temperature at 6 L/min and 350 °C were used, respectively; the sheath gas flow and temperature were maintained at 12 L/min and 350 °C, respectively; the nebulizing gas (N2) pressure was set at 25 psi; and the capillary and nozzle voltages were set at 3500 V and 500 V, respectively.
To 20 μL aliquot of the rat plasma samples, 60 μL of 5 ng/mL IS in methanol was added. The mixture was vortexed for 30 s and kept at 4 °C for 30 min. The mixture was centrifuged at 10,000× g for 10 min. The supernatant was transferred to an HPLC vial, and 15 μL of the processed sample was injected onto the LC-MS/MS system.
Male Sprague‒Dawley rats (8-week-old, weighing 250 ± 10 g) were obtained from Koatech (Pyeongtaek, Korea). They were housed and acclimated in the Animal Laboratory, Gyeongsang National University, under controlled temperature and humidity and regular 12 h light cycle, freely accessible to food and water for 7 days before the experiment. The rats were cannulated into the carotid artery and allowed to recover for one day. Before the pharmacokinetic study, all rats were fasted for 12 h with free access to water. R. acetosa extract suspended in a solution (ethanol:polysorbate 80:water = 1:2:7, v/v/v) was orally administered to the three rats at a dose of 2 g/kg. The calculated doses of compounds based on the contents in the extract were 18.8, 25.8, 13.6, 15.4, 3.4, and 8.2 mg/kg for E, EG, C, CG, P, and PG, respectively. Blood samples (100 µL) were collected via the cannulated carotid vessel at 0, 15, 30, 45 min, 1, 2, 3, 4, 6, 8, 12, and 24 h after oral administration. To collect plasma, the blood samples were immediately centrifuged at 10,000× g for 5 min. All plasma samples were stored at −80 °C until analysis. All experimental procedures of the animal study were approved (GNU-130618-R0038) by the Animal Care and Use Committee of Gyeongsang National University, Korea.

Series [4] can be described thus: Stability of the analytes in rat plasma (method validation). The class given is in vitro ADME. Particulars: n = 3; for Processed Sample Stability, Accuracy: processed rat plasma sample, 4 °C 24 h; for Short Term Stability, Accuracy / Freeze and Thaw Stability, Accuracy / Long Term Stability, Accuracy: rat plasma; for Short Term Stability, Accuracy: room temperature 4 h; for Freeze and Thaw Stability, Accuracy: three freeze-thaw cycles −80 °C to room temperature; for Long Term Stability, Accuracy: −80 °C one month. The procedure: as §1

Details of series [5]: method as in PMID 19921750. To be noted: after administration of emodin 40 mg/kg; rapidly and extensively metabolized to its glucuronide; cited from earlier work.
[6] abbreviates: high QC (P, E, C 300; PG, EG, CG 150 ng/mL).
[7] abbreviates: low QC (P, C 60; E, EG 3; PG, CG 30 ng/mL).
[8] abbreviates: middle QC (P, E, C 150; PG, EG, CG 75 ng/mL).

The structures appear in SMILES notation. Like-named read-outs stand apart in the source and are kept apart here.

This is an account of results in article PMC6161010, “A Simple and Sensitive Liquid Chromatography with Tandem Mass Spectrometric Method for the Simultaneous Determination of Anthraquinone Glycosides and Their Aglycones in Rat Plasma: Application to a Pharmacokinetic Study of Rumex acetosa Extract” (Pharmaceutics, 2018).

The term MRT denotes the average time that molecules of a dose stay in the body. A word on the Cmax: it is the peak of the concentration-time curve. What is called AUC(0-t) is the area under the concentration-time curve up to a stated or last time point. Read a low AUC(0-t) as less exposure.

For `Cc1cc(O)c2c(c1)C(=O)c1cc(O)cc(O[C@@H]3O[C@H](CO)[C@@H](O)[C@H](O)[C@H]3O)c1C2=O` [EG, emodin-8-O-β-D-glucoside], the “mean concentration in stock solution compared with fresh stock solutions” value in series [1] came out at 100.4%. Besides, in series [2], the “detection in plasma (in words)” value is listed as “not detected”. For the same compound, the “plasma concentrations (in words)” value in series [3] (rat) is given as “not high enough to determine the pharmacokinetic parameters”. In addition, in series [4] (setting [6]), the “Processed Sample Stability, Accuracy” value is recorded as 100.3%; the “Short Term Stability, Accuracy” value stood at 98.9%; the “Freeze and Thaw Stability, Accuracy” value turned out to be 100.9%; the “Long Term Stability, Accuracy” value came to 102.8%. Further, in series [4] (setting [7]), the “Processed Sample Stability, Accuracy” value stood at 91.5%; the “Short Term Stability, Accuracy” value was 99.8%; the “Freeze and Thaw Stability, Accuracy” value is on record as 100.4%; the “Long Term Stability, Accuracy” value was 102.9%. Moreover, in series [4] (setting [8]), the “Processed Sample Stability, Accuracy” value is listed as 107.9%; the “Short Term Stability, Accuracy” value worked out at 108.5%; the “Freeze and Thaw Stability, Accuracy” value stood at 112.3%; the “Long Term Stability, Accuracy” value is on record as 107.9%.
For `Cc1cc(O)c2c(c1)C(=O)c1cc(O)cc(O)c1C2=O` [E, emodin], in series [1], the “mean concentration in stock solution compared with fresh stock solutions” value was 94.8%. In addition, the “time until which the analyte could be detected” value in series [2] is on record as 36 h. The compound further came in with an MRT in series [3] (male, Sprague-Dawley, plasma, rat, n = 3, mean ± SD) of 7.7 ± 3 h. Besides, the Tmax in series [3] (male, Sprague-Dawley, plasma, rat, read-out: Median Tmax (converted)) was 0.25 h. In series [3] (male, Sprague-Dawley, rat plasma, n = 3, mean ± SD), this compound returned a Cmax of 124 ± 41.7 ng/mL. In series [3] (male, Sprague-Dawley, rat plasma, n = 3, mean ± SD, last measured time points for C, E, CG, PG 6, 24, 8, 6 h), this compound yielded an area under the curve AUC(0-t) of 1160 ± 336 ng·h/mL. Besides, in series [3] (rat), the “first time detected in plasma of every rat (first sampling time)” value was 15 min and the “time until which the analyte could be detected in plasma” value stood at 24 h. Besides, the Tmax in series [3] (rat, n = 3, median (range)) was 0.25 (0.25–0.75) h. Further, the “detection of the parent form (in words)” value in series [5] is “almost undetectable”. In series [4] (setting [6]), the “Processed Sample Stability, Accuracy” value is given as 104.6%; the “Short Term Stability, Accuracy” value came out at 101.8%; the “Freeze and Thaw Stability, Accuracy” value stood at 102.0%; the “Long Term Stability, Accuracy” value is recorded as 107.7%. Moreover, in series [4] (setting [7]), the “Processed Sample Stability, Accuracy” value was found to be 108.2%; the “Short Term Stability, Accuracy” value is 103.2%; the “Freeze and Thaw Stability, Accuracy” value amounted to 107.5%; the “Long Term Stability, Accuracy” value is 106.8%. For the same compound, in series [4] (setting [8]), the “Processed Sample Stability, Accuracy” value was determined as 108.0%; the “Short Term Stability, Accuracy” value is listed as 100.7%; the “Freeze and Thaw Stability, Accuracy” value turned out to be 104.5%; the “Long Term Stability, Accuracy” value turned out to be 107.8%.
